Experiment: Drug release test according to blocking ratio of chamber unit (Franz diffusion cell)
Format: physicochemical
Method: In order to evaluate drug release characteristics according to the size of the blocking unit (blocking film) that is bonded to the chamber unit, which is for storing the drug, and is for blocking the release of the drug stored in the chamber unit, contact lenses for drug delivery of FIG. 4 having various blocking ratios were prepared.
Specifically, contact lenses for drug delivery bonded to blocking units (blocking films) capable of blocking a […], with respect to a total area of the chamber unit were prepared, a drug was injected into each chamber unit, and drug release characteristics were evaluated.
The drug release test was conducted by putting the contact lens for drug delivery into a Franz diffusion cell and evaluating, and the test was conducted while maintaining the temperature at 37.0±0.5° C. and by using a phosphate buffer solution of pH 7.4. A solution in which lifitegrast was dissolved in distilled water was injected into the chamber unit of contact lenses for drug delivery, and the contact lenses were mounted on a donor. In addition, the experiment was conducted in a manner that 5 mL of the solution in which the drug was released was collected with a syringe from each container, and filled with the same amount of buffer solution at a predetermined sampling time (0.5, 1, 1.5, 2, 3, 4, 6 hours), after 5 mL of the solution containing the collected drug was filtered through a syringe filter, 2 mL each was put into a vial and used as a test solution, and the obtained test solution was analyzed by using high-performance liquid chromatography (HPLC).

CS(=O)(=O)c1cccc(C[C@H](NC(=O)c2c(Cl)cc3c(c2Cl)CCN(C(=O)c2ccc4ccoc4c2)C3)C(=O)O)c1 [lifitegrast]
Cumulative drug release (%) (blocking ratio 0%, 0 h): 0%
Cumulative drug release (%) (blocking ratio 0%, 0.5 h): 95%
Cumulative drug release (%) (blocking ratio 0%, 1 h): 100%
Cumulative drug release (%) (blocking ratio 0%, 1.5 h): 100%
Cumulative drug release (%) (blocking ratio 0%, 2 h): 100%
Cumulative drug release (%) (blocking ratio 0%, 3 h): 100%
Cumulative drug release (%) (blocking ratio 0%, 4 h): 100%
Cumulative drug release (%) (blocking ratio 0%, 5 h): 100%
Cumulative drug release (%) (blocking ratio 0%, 6 h): 100%
Cumulative drug release (%) (blocking ratio 2.5%, 0 h): 0%
Cumulative drug release (%) (blocking ratio 2.5%, 0.5 h): 90%
Cumulative drug release (%) (blocking ratio 2.5%, 1 h): 95%
Cumulative drug release (%) (blocking ratio 2.5%, 1.5 h): 100%
Cumulative drug release (%) (blocking ratio 2.5%, 2 h): 100%
Cumulative drug release (%) (blocking ratio 2.5%, 3 h): 100%
Cumulative drug release (%) (blocking ratio 2.5%, 4 h): 100%
Cumulative drug release (%) (blocking ratio 2.5%, 5 h): 100%
Cumulative drug release (%) (blocking ratio 2.5%, 6 h): 100%
Cumulative drug release (%) (blocking ratio 50%, 0 h): 0%
Cumulative drug release (%) (blocking ratio 50%, 0.5 h): 86%
Cumulative drug release (%) (blocking ratio 50%, 1 h): 90%
Cumulative drug release (%) (blocking ratio 50%, 1.5 h): 93%
Cumulative drug release (%) (blocking ratio 50%, 2 h): 96%
Cumulative drug release (%) (blocking ratio 50%, 3 h): 100%
Cumulative drug release (%) (blocking ratio 50%, 4 h): 100%
Cumulative drug release (%) (blocking ratio 50%, 5 h): 100%
Cumulative drug release (%) (blocking ratio 50%, 6 h): 100%
Cumulative drug release (%) (blocking ratio 75%, 0 h): 0%
Cumulative drug release (%) (blocking ratio 75%, 0.5 h): 61%
Cumulative drug release (%) (blocking ratio 75%, 1 h): 77%
Cumulative drug release (%) (blocking ratio 75%, 1.5 h): 83%
Cumulative drug release (%) (blocking ratio 75%, 2 h): 87%
Cumulative drug release (%) (blocking ratio 75%, 3 h): 91%
Cumulative drug release (%) (blocking ratio 75%, 4 h): 94%
Cumulative drug release (%) (blocking ratio 75%, 5 h): 97%
Cumulative drug release (%) (blocking ratio 75%, 6 h): 100%
Cumulative drug release (%) (blocking ratio 85%, 0 h): 0%
Cumulative drug release (%) (blocking ratio 85%, 0.5 h): 49%
Cumulative drug release (%) (blocking ratio 85%, 1 h): 59%
Cumulative drug release (%) (blocking ratio 85%, 1.5 h): 65%
Cumulative drug release (%) (blocking ratio 85%, 2 h): 73%
Cumulative drug release (%) (blocking ratio 85%, 3 h): 79%
Cumulative drug release (%) (blocking ratio 85%, 4 h): 87%
Cumulative drug release (%) (blocking ratio 85%, 5 h): 93%
Cumulative drug release (%) (blocking ratio 85%, 6 h): 98%
Cumulative drug release (%) (blocking ratio 95%, 0 h): 0%
Cumulative drug release (%) (blocking ratio 95%, 0.5 h): 33%
Cumulative drug release (%) (blocking ratio 95%, 1 h): 41%
Cumulative drug release (%) (blocking ratio 95%, 1.5 h): 51%
Cumulative drug release (%) (blocking ratio 95%, 2 h): 59%
Cumulative drug release (%) (blocking ratio 95%, 3 h): 71%
Cumulative drug release (%) (blocking ratio 95%, 4 h): 83%
Cumulative drug release (%) (blocking ratio 95%, 5 h): 90%
Cumulative drug release (%) (blocking ratio 95%, 6 h): 94%
Cumulative drug release (%) (blocking ratio 100%, 0 h): 0%
Cumulative drug release (%) (blocking ratio 100%, 0.5 h): 0%
Cumulative drug release (%) (blocking ratio 100%, 1 h): 0%
Cumulative drug release (%) (blocking ratio 100%, 1.5 h): 0%
Cumulative drug release (%) (blocking ratio 100%, 2 h): 0%
Cumulative drug release (%) (blocking ratio 100%, 3 h): 0%
Cumulative drug release (%) (blocking ratio 100%, 4 h): 0%
Cumulative drug release (%) (blocking ratio 100%, 5 h): 0%
Cumulative drug release (%) (blocking ratio 100%, 6 h): 0%

Reference: US20240033124A1, “DRUG DELIVERY CONTACT LENS AND OPHTHALMIC PHARMACEUTICAL COMPOSITION” (DAE WON PHARMACEUTICAL CO., LTD, priority 2021, published 2024)
